The results in this text go back to ChEMBL document CHEMBL4270495, “Oleanane-, ursane-, and quinone methide friedelane-type triterpenoid derivatives: Recent advances in cancer treatment” (Eur J Med Chem, 2017).

Some results are limits rather than exact numbers.

In one experiment the test system is Huh-7. In words: Cytotoxicity in human HuH7 cells assessed as reduction in cell viability incubated for 72 hrs by cell-titer Glo asay. The format is functional, cell-based. The settings on record: Huh-7, 72 h.
Experiment [1] deals with HepG2. In words: Cytotoxicity in human HepG2 cells assessed as reduction in cell viability incubated for 72 hrs by cell-titer Glo asay. The format is functional, cell-based. The conditions noted are these: HepG2, 72 h.
A further experiment has as its system Hep 3B2. Briefly: Cytotoxicity in human Hep3B cells assessed as reduction in cell viability incubated for 72 hrs by cell-titer Glo asay. It counts as functional, cell-based.
For experiment [2], the system named is HT-29. In words: Cytotoxicity in human HT-29 cells assessed as reduction in cell viability incubated for 96 hrs by SRB assay. It counts as functional, cell-based. The conditions noted are these: HT-29, 96 h. Background: Sulforhodamine B stains cellular protein and so reports cell mass.
Experiment [3] relates to A549. In words: Cytotoxicity in human A549 cells assessed as reduction in cell viability incubated for 96 hrs by SRB assay. The format is functional, cell-based. The settings on record: A549, 96 h.
The subject of a further experiment is NIH3T3. Briefly: Cytotoxicity in mouse NIH/3T3 cells assessed as reduction in cell viability incubated for 96 hrs by SRB assay. The format is cell-based. The conditions noted are these: NIH3T3, 96 h.
The test system of experiment [4] is MCF7. Briefly: Cytotoxicity in human MCF7 cells assessed as reduction in cell viability. It counts as functional, cell-based.
Experiment [5] relates to HepG2. Briefly: Cytotoxicity in human HepG2 cells assessed as reduction in cell viability. It counts as functional, cell-based.
The test system of a further experiment is BGC-823. Briefly: Cytotoxicity in human BGC823 cells assessed as reduction in cell viability incubated for 72 hrs by MTT assay. The format is functional, cell-based. The settings on record: BGC-823, 72 h. On the technique in general: Tetrazolium dyes change colour on reduction, which living cells bring about.
The next experiment concerns PC-3. Briefly: Cytotoxicity in human PC3 cells assessed as reduction in cell viability incubated for 72 hrs by MTT assay. It counts as functional, cell-based. The settings on record: PC-3, 72 h.
Another experiment has as its system ASPC1. Briefly: Growth inhibition of human AsPC1 cells incubated for 72 hrs by MTT assay. It counts as functional, cell-based. The settings on record: ASPC1, 72 h.
Experiment [6] has as its system AGS. Briefly: Antiproliferative activity in human AGS cells incubated for 3 days by MTT assay. The format is functional, cell-based. The conditions noted are these: 72 h.
The test system of a further experiment is HeLa. In words: Cytotoxicity in human HeLa cells assessed as reduction in cell viability incubated for 72 hrs by MTT assay. It counts as functional, cell-based.
Experiment [7] relates to MCF7. Briefly: Cytotoxicity in human MCF7 cells assessed as reduction in cell viability incubated for 72 hrs by MTT assay. The conditions noted are these: MCF7, 72 h. It counts as functional, cell-based.
For experiment [8], the system named is HT-29. In words: Cytotoxicity in human HT-29 cells assessed as reduction in cell viability incubated for 72 hrs by MTT assay. The settings on record: HT-29, 72 h. The format is functional, cell-based.
The test system of a further experiment is BJ. In words: Cytotoxicity in human BJ cells assessed as reduction in cell viability incubated for 72 hrs by MTT assay. The format is functional, cell-based.
Experiment [9] concerns MCF7. Briefly: Cytotoxicity in human MCF7 cells assessed as reduction in cell viability incubated for 24 hrs by MTT assay. The settings on record: MCF7, 24 h. It counts as functional, cell-based.
In experiment [10] the test system is A549. Briefly: Potency index, ratio of IC50 for Iressa to IC50 for test compound for cytotoxicity in human A549 cells assessed as reduction in cell viability incubated for 24 hrs by MTT assay. The format is functional.
The subject of experiment [11] is A549. In words: Cytotoxicity in human A549 cells assessed as reduction in cell viability incubated for 24 hrs by MTT assay. It counts as functional, cell-based. The settings on record: A549, 24 h.
Experiment [12] has as its system MDA-MB-231. In words: Antiproliferative activity in human MDA-MB-231 cells assessed as reduction in cell viability incubated for 24 to 72 hrs by MTT assay. The format is functional, cell-based.
Experiment [13] deals with MDA-MB-231. In words: Inhibition of cell invasion in human MDA-MB-231 cells. It counts as functional.
Experiment [14] is described as follows: Cytotoxicity in human A375-S2 cells assessed as reduction in cell viability incubated for 48 hrs by MTT assay. It counts as functional, cell-based. The settings on record: A375-S2, 48 h.
The test system of experiment [15] is AGS. Briefly: Cytotoxicity in human AGS cells assessed as reduction in cell viability incubated for 24 hrs by MTT assay. It counts as functional, cell-based.
For another experiment, the system named is HMEC. In words: Cytotoxicity in human HMEC cells assessed as reduction in cell viability incubated for 48 hrs by SRB assay. It counts as cell-based.
Experiment [16] in a line: Cytotoxicity in human […] cells assessed as reduction in cell viability incubated for 72 hrs by MTT assay. The format is functional, cell-based.
Experiment [17] in a line: Cytotoxicity in human HELF cells assessed as reduction in cell viability incubated for 24 hrs by MTT assay. It counts as cell-based.
The subject of experiment [18] is MCF7. Briefly: Cytotoxicity in human MCF7 cells assessed as reduction in cell viability incubated for 48 hrs by SRB assay. The format is functional, cell-based. The settings on record: MCF7, 48 h.
Experiment [19] relates to MDA-MB-231. In words: Cytotoxicity in human MDA-MB-231 cells assessed as reduction in cell viability incubated for 48 hrs by SRB assay. It counts as functional. The conditions noted are these: MDA-MB-231, 48 h.

As usually defined, the IC50 is the point on the concentration scale where inhibition reaches its midpoint. As to `CC1=C(O)C(=O)C=C2C1=CC=C1[C@@]2(C)CC[C@@]2(C)[C@@H]3C[C@](C)(C(=O)OCc4ccccc4)CC[C@]3(C)CC[C@]12C`, the half-inhibitory concentration (IC50) with Huh-7 stood at 2.15 µM; in the experiment on HepG2 [1], 4.26 µM; with Hep 3B2, 2.77 µM.

In the case of `COC(=O)[C@]12CCC(C)(C)C[C@H]1C1=CC[C@@H]3[C@@]4(C)C[C@@H](O)[C@H](OS(N)(=O)=O)C(C)(C)[C@@H]4CC[C@@]3(C)[C@]1(C)CC2`, the 50% inhibitory concentration (IC50) in the experiment on HT-29 [2] is 3.5 µM; in the experiment with A549 [3] it was 4 µM; in the experiment on NIH3T3, 2.2 µM.

Regarding `CC(=O)O/N=C1\CC[C@]2(C)[C@H]3CC=C4[C@@H]5[C@@H](C)[C@H](C)CC[C@]5(C(=O)O)CC[C@@]4(C)[C@]3(C)CC[C@H]2C1(C)C`, the half-maximal inhibitory concentration (IC50) with MCF7 [4] turned out to be 3.4 µM; in the experiment with HepG2 [5], 4.3 µM.

As for `CCCC(=O)O[C@H]1CC[C@]2(C)[C@H]3CC=C4[C@@H]5CC(C)(C)CC[C@]5(C(=O)n5ccc(=O)[nH]c5=O)CC[C@@]4(C)[C@]3(C)CC[C@H]2C1(C)C`, the IC50 was 0.22 µM with BGC-823 and 0.28 µM in the experiment on PC-3.

For `COC(=O)[C@]12CCC(C)(C)C[C@H]1C1=CC[C@@H]3[C@@]4(C)C/C(=C/n5ccnc5)C(=O)C(C)(C)[C@@H]4CC[C@@]3(C)[C@]1(C)CC2`, in the experiment with ASPC1, the IC50 is under 5 µM.

Take `CC1(C)CC[C@]2(C(=O)O)CC[C@]3(C)C(=CC[C@@H]4[C@@]5(C)CC[C@H](OC(=O)CCc6cn(-c7ccc(Cl)cc7)nn6)C(C)(C)[C@@H]5CC[C@]43C)[C@@H]2C1`: the IC50 with AGS [6] turned out to be 8.9 µM.

In the case of `COC(=O)[C@]12CC[C@@H](C)[C@H](C)[C@H]1C1=CC(=O)[C@@H]3[C@@]4(C)C(C=O)=C[C@@](C)(CO)[C@@H]4CC[C@@]3(C)[C@]1(C)CC2`, the IC50 with HeLa stood at 0.3 µM; with MCF7 [7] it was 0.74 µM; with HT-29 [8], 0.59 µM; with BJ, 3.33 µM.

In the case of `CC1(C)CC[C@]2(C(=O)O)CC[C@]3(C)C(=CC[C@@H]4[C@@]5(C)CC[C@H](O[C@@H]6OC[C@H](O)[C@H](O[C@H]7O[C@H](CO)[C@@H](O)[C@H](O)[C@@H]7O)[C@H]6O)[C@@](C)(CO)[C@@H]5CC[C@]43C)[C@H]2C1`, the values for the half-inhibitory concentration (IC50) in the experiment on MCF7 [9] and in the experiment on A549 [11] were 19.3 µM and 6.6 µM, respectively. In addition, in the experiment on A549 [10], the “Ratio IC50” value was 4.

On to `CC1=C(O)C(=O)C=C2C1=CC=C1[C@@]2(C)CC[C@@]2(C)[C@@H]3C[C@](C)(C(=O)NCCc4ccccc4)CC[C@]3(C)CC[C@]12C`, for which the IC50 with Huh-7 is 1.04 µM; in the experiment with HepG2 [1] it was 3.58 µM; with Hep 3B2, 1.06 µM.

In the case of `CC1(C)CC[C@]2(C(=O)O)CC[C@]3(C)C(=CC[C@@H]4[C@@]5(C)CC[C@H](OC(=O)NS(=O)(=O)c6ccc(F)cc6)C(C)(C)[C@@H]5CC[C@]43C)[C@@H]2C1`, the IC50 with MDA-MB-231 [12] was found to be 3.4 µM. In the experiment on MDA-MB-231 [13], the “inhibition (INH)” value worked out at 72.5%.

`COC(=O)[C@]12CC[C@@H](C)[C@H](C)[C@H]1C1=CC(=O)[C@@H]3[C@@]4(C)C(C=O)=C[C@@](C)(COS(C)(=O)=O)[C@@H]4CC[C@@]3(C)[C@]1(C)CC2`: the 50% inhibitory concentration (IC50) was determined as 0.24 µM in the experiment with HeLa, 0.65 µM in the experiment on MCF7 [7], 0.59 µM in the experiment with HT-29 [8] and 2.43 µM with BJ.

Consider `CC1(C)CC[C@]2(C(=O)OCc3cn(-c4ccc([N+](=O)[O-])cc4)nn3)CC[C@]3(C)C(=CC[C@@H]4[C@@]5(C)CCC(=O)C(C)(C)[C@@H]5CC[C@]43C)[C@@H]2C1`, for which, in experiment [14], the IC50 is under 3 µM.

For orientation: GI50 means the concentration giving 50% growth inhibition. With `C[C@H]1[C@H](C)CC[C@]2(C(=O)O)CC[C@]3(C)C(=CC[C@@H]4[C@@]5(C)CC[C@H](O)C(C)(C)[C@@H]5CC[C@]43C)[C@H]12` [URSOLIC ACID], the IC50 in the experiment with AGS [15] was 43.3 µM; in the experiment on HMEC, 39.3 µM; in [16], 26.5 µM; in experiment [17], 21.3 µM. The 50% growth inhibitory concentration (GI50) was 21 µM in the experiment with MCF7 [18] and 11.1 µM in the experiment with MDA-MB-231 [19].
